Article PMC4153739 (Biochemistry, 2012)
Non-standard residues stand in square brackets, D forms with d. Residues, ends and D or L forms follow the SMILES beside them. Gla = N[C@@H](CC(C(=O)O)C(=O)O)C(=O)O

System: four NR2 NMDA receptor subtypes (NR2A, NR2B, NR2C, NR2D with NR1-2b)
Format: cell-based, rat

## CC(C)C[C@H](NC(=O)[C@H](CC(C(=O)O)C(=O)O)NC(=O)[C@H](CCCNC(=N)N)NC(=O)[C@H](C)NC(=O)[C@H](Cc1ccccc1)NC(=O)[C@H](CC(C(=O)O)C(=O)O)NC(=O)[C@H](CCC(N)=O)NC(=O)[C@H](CC(N)=O)NC(=O)[C@H](CC(C(=O)O)C(=O)O)NC(=O)[C@H](C)NC(=O)[C@H](CC(C)C)NC(=O)[C@H](CC(C(=O)O)C(=O)O)NC(=O)[C@H](CC(C(=O)O)C(=O)O)NC(=O)[C@H](CCC(=O)O)NC(=O)CN)C(=O)N[C@@H](C)C(=O)N[C@@H](CC(N)=O)C(N)=O [ConRl-B[desKAO;N8Q9]] (H-GE[Gla][Gla]LA[Gla]NQ[Gla]FAR[Gla]LAN-NH2; N-terminus assumed)
  activity on the four NR2 NMDA receptor subtypes, in words: little or no activity
